Measurements: patent US20230077362A1 (CORTEVA AGRISCIENCE LLC, priority 2019, published 2023)

What was measured:
[1] = test system: Beet Armyworm (Spodoptera exigua) ("BAW"), second instar larvae; assay: Bioassay on beet armyworm (BAW), 128-well diet tray assay; format: in vivo; details: Spodoptera exigua, read-out: BAW (Biological Results, rating)
In short: (§1)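 Covered trays were held at 25° C. under a 14:10 light-dark cycle for five to seven days. Percent mortality was then scored in each well, and activity across eight wells was averaged.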

[2] = test system: Cabbage Looper (Trichoplusia ni) ("CL"), second instar larvae; assay: Bioassay on cabbage looper (CL), 128-well diet tray assay; format: in vivo; details: Trichoplusia ni, read-out: CL (Biological Results, rating)
In short: as §1

Row | Compound | pest or weed control at 50 µg/cm2 [1] [%] | pest or weed control at 50 µg/cm2 [2] [%]
1 | CCCOc1ccc(C)cc1N1C(=O)CS/C1=N\C(=O)Nc1ccc(-c2ncn(-c3ccc(OC(F)(F)F)cc3)n2)cc1F [Compound J125, (Z)-1-(2-Fluoro-4-(1-(4-(trifluoromethoxy)phenyl)-1H-1,2,4-triazol-3-yl)phenyl)-3-(3-(5-methyl-2-propoxyphenyl)-4-oxothiazolidin-2-ylidene)urea] | 50 to 100 | 50 to 100
2 | CCCNc1ccc(C(C)C)c(N2C(=O)CS/C2=N\C(=O)Nc2ccc(-c3ncn(-c4ccc(OC(F)(F)F)cc4)n3)cc2C)c1 [Compound J128, (Z)-1-(3-(2-Isopropyl-5-(propylamino)phenyl)-4-oxothiazolidin-2-ylidene)-3-(2-methyl-4-(1-(4-(trifluoromethoxy)phenyl)-1H-1,2,4-triazol-3-yl)phenyl)urea] | 50 to 100 | 50 to 100
3 | CCN(CC)c1ccc(C(C)C)c(N2C(=O)CS/C2=N\C(=O)Nc2ccc(-c3ncn(-c4ccc(OC(F)(F)F)cc4)n3)cc2C)c1 [Compound J129, (Z)-1-(3-(5-(Diethylamino)-2-isopropylphenyl)-4-oxothiazolidin-2-ylidene)-3-(2-methyl-4-(1-(4-(trifluoromethoxy)phenyl)-1H-1,2,4-triazol-3-yl)phenyl)urea] | 50 to 100 | 50 to 100
4 | CCCN(CCC)c1ccc(C(C)C)c(N2C(=O)CS/C2=N\C(=O)Nc2ccc(-c3ncn(-c4ccc(OC(F)(F)F)cc4)n3)cc2C)c1 [Compound J130, (Z)-1-(3-(5-(Dipropylamino)-2-isopropylphenyl)-4-oxothiazolidin-2-ylidene)-3-(2-methyl-4-(1-(4-(trifluoromethoxy)phenyl)-1H-1,2,4-triazol-3-yl)phenyl)urea] | 50 to 100 | 50 to 100
5 | Cc1ccc(C(C)C)c(N2C(=O)CS/C2=N\C(=O)Nc2ccc(-c3ncn(-c4cccc(C(F)(F)F)c4)n3)cc2C)c1 [Compound J131, (Z)-1-(3-(2-Isopropyl-5-methylphenyl)-4-oxothiazolidin-2-ylidene)-3-(2-methyl-4-(1-(3-(trifluoromethyl)phenyl)-1H-1,2,4-triazol-3-yl)phenyl)urea] | 50 to 100 | 50 to 100
6 | Cc1ccc(C(C)C)c(N2C(=O)CS/C2=N\C(=O)Nc2ccc(-c3ncn(-c4cccc(C(F)(F)F)c4)n3)cc2F)c1 [Compound J140, (Z)-1-(2-Fluoro-4-(1-(3-(trifluoromethyl)phenyl)-1H-1,2,4-triazol-3-yl)phenyl)-3-(3-(2-isopropyl-5-methylphenyl)-4-oxothiazolidin-2-ylidene)urea] | 50 to 100 | 50 to 100
7 | COc1ccc(-n2cnc(-c3ccc(NC(=O)/N=C4\SCC(=O)N4c4cc(C)ccc4C(C)C)c(F)c3)n2)cc1 [Compound J144, (Z)-1-(2-Fluoro-4-(1-(4-methoxyphenyl)-1H-1,2,4-triazol-3-yl)phenyl)-3-(3-(2-isopropyl-5-methylphenyl)-4-oxothiazolidin-2-ylidene)urea] | 50 to 100 | 50 to 100
8 | COc1ccc(-n2cnc(-c3ccc(NC(=O)/N=C4\SCC(=O)N4c4cc(C)ccc4OCCC(F)(F)F)c(F)c3)n2)cc1 [Compound J147, (Z)-1-(2-Fluoro-4-(1-(4-methoxyphenyl)-1H-1,2,4-triazol-3-yl)phenyl)-3-(3-(5-methyl-2-(3,3,3-trifluoropropoxy)phenyl)-4-oxothiazolidin-2-ylidene)urea] | 50 to 100 | 50 to 100
9 | Cc1ccc(-n2cnc(-c3ccc(NC(=O)/N=C4\SCC(=O)N4c4cc(N(C)C)ccc4C(C)C)c(F)c3)n2)cc1 [Compound J150, (Z)-1-(3-(5-(Dimethylamino)-2-isopropylphenyl)-4-oxothiazolidin-2-ylidene)-3-(2-fluoro-4-(1-(p-tolyl)-1H-1,2,4-triazol-3-yl)phenyl)urea] | 50 to 100 | 50 to 100
10 | CC(C)c1ccc(N(C)C)cc1N1C(=O)CS/C1=N\C(=O)Nc1ccc(-c2ncn(-c3cccc(OC(F)(F)F)c3)n2)cc1F [Compound J155, (Z)-1-(3-(5-(Dimethylamino)-2-isopropylphenyl)-4-oxothiazolidin-2-ylidene)-3-(2-fluoro-4-(1-(3-(trifluoromethoxy)phenyl)-1H-1,2,4-triazol-3-yl)phenyl)urea] | 50 to 100 | 50 to 100
11 | CCc1cc(-c2ncn(-c3ccc(OC(F)(F)F)cc3)n2)ccc1NC(=O)/N=C1\SCC(=O)N1c1cc(NC)ccc1C(C)C [Compound J157, (Z)-1-(2-Ethyl-4-(1-(4-(trifluoromethoxy)phenyl)-1H-1,2,4-triazol-3-yl)phenyl)-3-(3-(2-isopropyl-5-(methylamino)phenyl)-4-oxothiazolidin-2-ylidene)urea] | 50 to 100 | 50 to 100
12 | CCNc1ccc(C(C)C)c(N2C(=O)CS/C2=N\C(=O)Nc2ccc(-c3ncn(-c4ccc(OC(F)(F)F)cc4)n3)cc2CC)c1 [Compound J158, (Z)-1-(2-Ethyl-4-(1-(4-(trifluoromethoxy)phenyl)-1H-1,2,4-triazol-3-yl)phenyl)-3-(3-(5-(ethylamino)-2-isopropylphenyl)-4-oxothiazolidin-2-ylidene)urea] | 50 to 100 | 50 to 100
13 | CCCNc1ccc(C(C)C)c(N2C(=O)CS/C2=N\C(=O)Nc2ccc(-c3ncn(-c4ccc(OC(F)(F)F)cc4)n3)cc2CC)c1 [Compound J159, (Z)-1-(2-Ethyl-4-(1-(4-(trifluoromethoxy)phenyl)-1H-1,2,4-triazol-3-yl)phenyl)-3-(3-(2-isopropyl-5-(propylamino)phenyl)-4-oxothiazolidin-2-ylidene)urea] | 50 to 100 | 50 to 100
14 | CCc1cc(-c2ncn(-c3ccc(OC(F)(F)F)cc3)n2)ccc1NC(=O)/N=C1\SCC(=O)N1c1cc(N(CC)CC)ccc1C(C)C [Compound J160, (Z)-1-(3-(5-(Diethylamino)-2-isopropylphenyl)-4-oxothiazolidin-2-ylidene)-3-(2-ethyl-4-(1-(4-(trifluoromethoxy)phenyl)-1H-1,2,4-triazol-3-yl)phenyl)urea] | 50 to 100 | 50 to 100
15 | CCCN(CCC)c1ccc(C(C)C)c(N2C(=O)CS/C2=N\C(=O)Nc2ccc(-c3ncn(-c4ccc(OC(F)(F)F)cc4)n3)cc2CC)c1 [Compound J161, (Z)-1-(3-(5-(Dipropylamino)-2-isopropylphenyl)-4-oxothiazolidin-2-ylidene)-3-(2-ethyl-4-(1-(4-(trifluoromethoxy)phenyl)-1H-1,2,4-triazol-3-yl)phenyl)urea] | 50 to 100 | 0 to 50
16 | CC(C)c1cc(F)c(N(C)C)cc1N1C(=O)CS/C1=N\C(=O)Nc1ccc(-c2ncn(-c3ccc(OC(F)(F)F)cc3)n2)cc1F [Compound J162, (Z)-1-(3-(5-(Dimethylamino)-4-fluoro-2-isopropylphenyl)-4-oxothiazolidin-2-ylidene)-3-(2-fluoro-4-(1-(4-(trifluoromethoxy)phenyl)-1H-1,2,4-triazol-3-yl)phenyl)urea] | 50 to 100 | 50 to 100
17 | Cc1ccc([N+](=O)[O-])c(N2C(=O)CS/C2=N\C(=O)Nc2ccc(-c3ncn(-c4ccc(OC(F)(F)F)cc4)n3)cc2F)c1 [Compound J163, (Z)-1-(2-Fluoro-4-(1-(4-(trifluoromethoxy)phenyl)-1H-1,2,4-triazol-3-yl)phenyl)-3-(3-(5-methyl-2-nitrophenyl)-4-oxothiazolidin-2-ylidene)urea] | 50 to 100 | 50 to 100
18 | CC(C)c1ccc(C(C)C)c(N2C(=O)CS/C2=N\C(=O)Nc2ccc(-c3ncn(-c4ccc(OC(F)(F)F)cc4)n3)cc2F)c1 [Compound J164, (Z)-1-(3-(2,5-Diisopropylphenyl)-4-oxothiazolidin-2-ylidene)-3-(2-fluoro-4-(1-(4-(trifluoromethoxy)phenyl)-1H-1,2,4-triazol-3-yl)phenyl)urea] | 50 to 100 | 50 to 100
19 | Cc1ccc(COCC(F)(F)F)c(N2C(=O)CS/C2=N\C(=O)Nc2ccc(-c3ncn(-c4ccc(OC(F)(F)F)cc4)n3)cc2C(F)(F)F)c1 [Compound J165, (Z)-1-(3-(5-Methyl-2-((2,2,2-trifluoroethoxy)methyl)phenyl)-4-oxothiazolidin-2-ylidene)-3-(4-(1-(4-(trifluoromethoxy)phenyl)-1H-1,2,4-triazol-3-yl)-2-(trifluoromethyl)phenyl)urea] | 50 to 100 | 50 to 100
20 | CC(C)c1ccc(N(C)C)cc1N1C(=O)CS/C1=N\C(=O)Nc1ccc(-c2ncn(-c3ccc(OC(F)(F)F)cc3)n2)cc1Cl [Compound J166, (Z)-1-(2-Chloro-4-(1-(4-(trifluoromethoxy)phenyl)-1H-1,2,4-triazol-3-yl)phenyl)-3-(3-(5-(dimethylamino)-2-isopropylphenyl)-4-oxothiazolidin-2-ylidene)urea] | 50 to 100 | 50 to 100
21 | Cc1ccc(COCC(F)(F)F)c(N2C(=O)CS/C2=N\C(=O)Nc2ccc(-c3ncn(-c4ccc(C(F)(F)F)cc4)n3)cc2C)c1 [Compound J167, (Z)-1-(3-(5-Methyl-2-((2,2,2-trifluoroethoxy)methyl)phenyl)-4-oxothiazolidin-2-ylidene)-3-(2-methyl-4-(1-(4-(trifluoromethyl)phenyl)-1H-1,2,4-triazol-3-yl)phenyl)urea] | 50 to 100 | 50 to 100
22 | COCOc1cc(-c2ncn(-c3ccc(OC(F)(F)F)cc3)n2)ccc1NC(=O)/N=C1\SCC(=O)N1c1cc(C)ccc1C(C)C [Compound J170, (Z)-1-(3-(2-Isopropyl-5-methylphenyl)-4-oxothiazolidin-2-ylidene)-3-(2-(methoxymethoxy)-4-(1-(4-(trifluoromethoxy)phenyl)-1H-1,2,4-triazol-3-yl)phenyl)urea] | 50 to 100 | 50 to 100
